The nature of test [1]: Activity at RXR-LXR heterodimer assessed as induction of ABCA1 mRNA. More on the design: species or system Homo sapiens.
The species named for test [2] is Homo sapiens. As to the kind of experiment: Activation of RXR-LXR heterodimer assessed as induction of ABCA1 mRNA relative to 5-((3-(1-ethyl-4,4,6-trimethyl-2-oxo-1,2,3,4-tetrahydroquinolin-7-yl)-4-(trifluoromethoxy)phenyl)methylene)thiazolidine-2,4-dione. On the set-up: concentration or dose not given beside the values.
Test [3] has as its target T1, Retinoic acid receptor RXR-alpha (Homo sapiens) (UniProt P19793).
T1 sequence (whole entry): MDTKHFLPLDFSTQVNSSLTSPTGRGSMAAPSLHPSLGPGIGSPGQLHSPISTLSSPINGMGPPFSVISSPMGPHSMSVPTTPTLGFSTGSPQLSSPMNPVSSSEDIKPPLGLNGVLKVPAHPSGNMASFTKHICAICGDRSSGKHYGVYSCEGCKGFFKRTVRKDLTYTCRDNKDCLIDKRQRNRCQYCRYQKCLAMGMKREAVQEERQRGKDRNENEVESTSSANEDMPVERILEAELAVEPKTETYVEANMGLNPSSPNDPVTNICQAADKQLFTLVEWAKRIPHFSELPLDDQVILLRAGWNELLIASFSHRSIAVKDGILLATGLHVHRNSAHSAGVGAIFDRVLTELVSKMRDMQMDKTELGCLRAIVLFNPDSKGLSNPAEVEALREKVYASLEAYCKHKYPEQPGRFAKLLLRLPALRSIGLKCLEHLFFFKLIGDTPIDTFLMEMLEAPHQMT
As to the kind of experiment: Activity at RXRalpha by GAL4DNA cotransfection assay relative to 5-((3-(1-ethyl-4,4,6-trimethyl-2-oxo-1,2,3,4-tetrahydroquinolin-7-yl)-4-(trifluoromethoxy)phenyl)methylene)thiazolidine-2,4-dione. More on the design: concentration or dose not given beside the values.

For test [4], the target named is T2, Retinoic acid receptor RXR-alpha (Homo sapiens, UniProt P19793).
T2 sequence (P19793 whole entry): T1 sequence (whole entry)
As to the kind of experiment: Activity at RXRalpha by GAL4DNA cotransfection assay.

Test [5] in a line: Activity at RXR-PPARgamma in human preadipocytes assessed as induction of adipocytes fatty acid binding protein. It counts as cell-based.
Test [6] deals with Rattus norvegicus. As to the kind of experiment: Effect on serum cholesterol level in high cholesterol diet fed Sprague-Dawley rat at 10 mg/kg, po after 8 days relative to control. It is filed as functional.
For test [7], the system named is Rattus norvegicus. Put plainly: Effect on serum HDL-C level in high cholesterol diet fed Sprague-Dawley rat at 10 mg/kg, po after 8 days relative to control. It counts as functional.
In test [8] the test system is Rattus norvegicus. Put plainly: Effect on serum LDL-C level in high cholesterol diet fed Sprague-Dawley rat at 10 mg/kg, po after 8 days relative to control. It counts as functional.
For test [9], the system named is Rattus norvegicus. As to the kind of experiment: Effect on serum triglyceride level in high cholesterol diet fed Sprague-Dawley rat at 10 mg/kg, po after 8 days relative to control. It is filed as functional.

One may read the EC50 as the midpoint of the concentration-response curve. Consider `CCN1C(=O)CC(C)(C)c2cc(C)c(-c3cc(C(C)CC(=O)O)ccc3OC(F)(F)F)cc21` (stereo not given), for which the EC50 in test [1] was 347 nM; in test [4] it was 37.7 nM. Also, the results for the Activity in test [2] and in test [3] were 160% and 99%, respectively.

For the molecule `CCN1C(=O)CC(C)(C)c2cc(C)c(-c3cc(OC(C)(C)C(=O)O)ccc3OC(F)(F)F)cc21`, the EC50 in test [1] is greater than 3000 nM.

For `CCN1C(=O)CC(C)(C)c2cc(C)c(-c3cc(C4CC4C(=O)O)ccc3OC(F)(F)F)cc21` (racemic), the figures for the concentration for a half-maximal effect (EC50) in test [1] and in test [4] were 17.4 nM and 19.2 nM, respectively. The Activity in [3] stood at 88%.

Consider `Cc1cc2c(cc1-c1cc(CCC(=O)O)ccc1OC(F)(F)F)N(C(C)C)C(=O)CC2(C)C`, for which the EC50 in [1] was 1 nM. The Activity turned out to be 59% in [2] and 80% in [3].

For `CCN1C(=O)CC(C)(C)c2cc(C)c(-c3cc(C4CC4C(=O)O)ccc3OCC(F)(F)F)cc21` (racemic), the 50% effective concentration (EC50) in [1] was greater than 3000 nM; in test [4], 116 nM. In test [3], this molecule returned an Activity of 87%.

As to `COc1ccc(C2CC2C(=O)O)cc1-c1cc2c(cc1C)C(C)(C)CC(=O)N2C(C)C` (racemic), the half-maximal effective concentration (EC50) is 1520 nM in test [1] and 208 nM in test [4]. Further, the Activity in test [3] is 50%.

`Cc1cc2c(cc1-c1cc(CCC(=O)O)ccc1OC(F)(F)F)N(C)C(=O)CC2(C)C`: the EC50 in [1] worked out at 53 nM; in test [4] it was 45.9 nM. In addition, in test [3], the Activity was determined as 91%.

Take `Cc1cc2c(cc1-c1cc(CCC(=O)O)ccc1OCC(F)(F)F)N(C(C)C)C(=O)CC2(C)C`: the EC50 in test [1] is 369 nM; in test [4] it was 36.5 nM. Besides, the results for the Activity in test [2] and in test [3] were 45% and 79%, respectively.

As for `Cc1cc2c(cc1-c1cc(CCC(=O)O)ccc1OC(F)(F)F)N(CC(F)(F)F)C(=O)CC2(C)C`, the concentration for a half-maximal effect (EC50) in [1] is greater than 3000 nM; in test [4], 1.4 nM. Further, in test [3], the Activity came out at 100%.

Take `Cc1cc2c(cc1-c1cc([C@@H]3C[C@H]3C(=O)O)ccc1OC(F)(F)F)N(C(C)C)C(=O)CC2(C)C`: the EC50 in test [1] was greater than 3000 nM; in test [5] it was 266 nM; in test [4], 10 nM. The same molecule registered an Activity in [3] of 70%.

For `CCN1C(=O)CC(C)(C)c2cc(C)c(-c3cc(/C=C\C(=O)O)ccc3OC(F)(F)F)cc21`, the concentration giving a half-maximal response (EC50) in test [1] amounted to 886 nM; in test [4], 39.1 nM. Besides, the Activity is 75% in test [2] and 97% in [3].

Regarding `CCN1C(=O)CC(C)(C)c2cc(C)c(-c3cc(/C=C/C(=O)O)ccc3OC(F)(F)F)cc21`, in [1], the EC50 came to 3.6 nM. Also, the results for the Activity in test [2] and in test [3] were 81% and 115%, respectively.

`CCN1C(=O)CC(C)(C)c2cc(C)c(-c3cc([C@H]4C[C@@H]4C(=O)O)ccc3OC(F)(F)F)cc21`: the figures for the EC50 in [1] and in test [4] were greater than 3000 nM and 361 nM, respectively. In [3], this molecule displayed an Activity of 92%.

Consider `Cc1cc2c(cc1-c1cc(C3CC3C(=O)O)ccc1OC(F)(F)F)N(C(C)C)C(=O)CC2(C)C` (racemic), for which the EC50 in test [1] was greater than 3000 nM; in [4], 5 nM. The Activity in test [3] is 85%.

Take `COc1ccc(CCC(=O)O)cc1-c1cc2c(cc1C)C(C)(C)CC(=O)N2C(C)C`: the results for the EC50 in test [1] and in test [4] were greater than 3000 nM and 361 nM, respectively. Further, the Activity in [3] worked out at 60%.

Take `CCN1C(=O)CC(C)(C)c2cc(C)c(-c3cc(C#CC(=O)O)ccc3OC(F)(F)F)cc21`: the 50% effective concentration (EC50) in [1] was greater than 3000 nM.

With `CCN1C(=O)CC(C)(C)c2cc(C)c(-c3cc(/C(C)=C/C(=O)O)ccc3OC(F)(F)F)cc21`, the EC50 in [4] is greater than 10000 nM.

On to `CCN1C(=O)CC(C)(C)c2cc(C)c(-c3cc(/C=C(\C)C(=O)O)ccc3OC(F)(F)F)cc21`, for which the EC50 in test [1] stood at 100 nM; in test [4], 27.9 nM. The Activity in test [2] is 49%; in [3], 81%.

In the case of `CCN1C(=O)CC(C)(C)c2cc(C)c(-c3cc(CCC(=O)O)ccc3OCC(F)(F)F)cc21`, the concentration giving a half-maximal response (EC50) is greater than 3000 nM in [1], greater than 3000 nM in test [5] and 70.2 nM in test [4]. In test [3], this molecule gave an Activity of 90%.

With `Cc1cc2c(cc1-c1cc([C@H]3C[C@@H]3C(=O)O)ccc1OC(F)(F)F)N(C(C)C)C(=O)CC2(C)C`, the half-maximal effective concentration (EC50) in [1] is greater than 3000 nM; in [4] it was 198 nM. Moreover, the Activity in test [3] was found to be 50%.

With `CCN1C(=O)CC(C)(C)c2cc(C)c(-c3cc([C@@H]4C[C@H]4C(=O)O)ccc3OC(F)(F)F)cc21`, the EC50 in test [1] is greater than 3000 nM; in test [5] it was 581 nM; in test [4], 2.3 nM. For the same molecule, the Activity in [3] came to 85%.

As for `Cc1cc2c(cc1-c1cc(C3CC3C(=O)O)ccc1OCC(F)(F)F)N(C)C(=O)CC2(C)C` (racemic), the EC50 in test [1] is greater than 3000 nM; in test [4], 144 nM. Further, the Activity in [3] turned out to be 108%.

Turning to `CCN1C(=O)CC(C)(C)c2cc(C)c(-c3cc(/C=C4\SC(=O)NC4=O)ccc3OC(F)(F)F)cc21`, the values for the concentration for a half-maximal effect (EC50) in test [1] and in [5] were 180 nM and 139 nM, respectively. The Activity turned out to be 267 mg/dL in test [6], 47 mg/dL in test [7], 41 mg/dL in test [8] and 286 mg/dL in [9].

On to `CCN1C(=O)CC(C)(C)c2cc(C)c(-c3cc(CCCC(=O)O)ccc3OC(F)(F)F)cc21`, for which the EC50 is greater than 3000 nM in [1] and 527 nM in test [4]. The molecule further had an Activity in test [3] of 70%.

On to `CCN1C(=O)CC(C)(C)c2cc(C)c(-c3cc(OCC(=O)O)ccc3OC(F)(F)F)cc21`, for which the EC50 in test [1] is greater than 3000 nM.

Regarding `CCN1C(=O)CC(C)(C)c2cc(C)c(-c3cc(CC(C)C(=O)O)ccc3OC(F)(F)F)cc21` (stereo not given), the EC50 is greater than 3000 nM in [1] and 760 nM in [4]. The Activity in test [3] is 85%.

The values are drawn from ChEMBL document CHEMBL1139972, “Dihydro-[1H]-quinolin-2-ones as retinoid X receptor (RXR) agonists for potential treatment of dyslipidemia” (Bioorg Med Chem Lett, 2007).
